Columns and labels:
[1] = target: T1, ATP-citrate synthase (Homo sapiens, UniProt P53396); experiment: Inhibition of ACL (unknown origin)
T1 sequence (P53396 whole entry): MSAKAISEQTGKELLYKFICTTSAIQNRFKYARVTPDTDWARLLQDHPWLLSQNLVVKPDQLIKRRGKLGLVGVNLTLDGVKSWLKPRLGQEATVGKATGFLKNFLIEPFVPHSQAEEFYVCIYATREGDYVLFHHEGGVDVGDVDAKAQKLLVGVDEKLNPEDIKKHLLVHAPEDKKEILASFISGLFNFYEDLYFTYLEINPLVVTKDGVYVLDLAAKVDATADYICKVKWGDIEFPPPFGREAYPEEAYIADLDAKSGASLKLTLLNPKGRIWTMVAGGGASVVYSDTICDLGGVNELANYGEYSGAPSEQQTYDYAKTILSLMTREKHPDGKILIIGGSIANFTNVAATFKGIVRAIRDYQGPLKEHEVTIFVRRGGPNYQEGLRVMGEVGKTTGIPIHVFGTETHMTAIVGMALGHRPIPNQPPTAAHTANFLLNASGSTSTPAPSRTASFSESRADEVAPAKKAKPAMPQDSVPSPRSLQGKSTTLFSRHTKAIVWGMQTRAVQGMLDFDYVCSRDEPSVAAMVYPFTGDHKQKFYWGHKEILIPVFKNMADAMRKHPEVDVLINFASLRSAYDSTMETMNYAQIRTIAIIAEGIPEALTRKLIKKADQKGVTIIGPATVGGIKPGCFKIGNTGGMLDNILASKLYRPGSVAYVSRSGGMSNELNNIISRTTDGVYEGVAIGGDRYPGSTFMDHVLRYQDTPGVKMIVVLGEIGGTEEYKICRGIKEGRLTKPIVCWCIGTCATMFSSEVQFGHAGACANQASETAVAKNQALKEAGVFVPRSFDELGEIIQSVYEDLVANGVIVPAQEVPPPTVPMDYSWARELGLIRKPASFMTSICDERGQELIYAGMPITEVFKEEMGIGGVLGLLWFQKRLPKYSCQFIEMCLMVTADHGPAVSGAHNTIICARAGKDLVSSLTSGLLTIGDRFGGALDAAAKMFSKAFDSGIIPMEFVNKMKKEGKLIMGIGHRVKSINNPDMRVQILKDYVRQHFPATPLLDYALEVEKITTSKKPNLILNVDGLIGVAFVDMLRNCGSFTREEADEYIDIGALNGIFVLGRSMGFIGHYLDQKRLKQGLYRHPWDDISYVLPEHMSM

[2] = target: T1, ATP-citrate synthase; experiment: Inhibition of ACL (unknown origin) incubated for 30 mins in presence of ATP by ADP-Glo kinase assay
[3] = target: Acetyl-CoA carboxylase 1 (Homo sapiens, UniProt Q13085); experiment: Inhibition of ACC1 (unknown origin) preincubated for 30 mins followed by ATP addition measured for 60 mins by ADP-Glo luminescence assay

| Compound | IC50 [1] [µM] | IC50 [2] [µM] | IC50 [3] [µM] |
| --- | --- | --- | --- |
| COc1ccc(-c2ccccc2)cc1NS(=O)(=O)c1cc(Cl)cc(Cl)c1O | 0.5 |  |  |
| CC(=O)O[C@@H]1CC[C@]2(C)[C@@H]3CC[C@]4(C)C(=CC[C@@]4(C)[C@H](C)Cc4cc(C(=O)O)co4)C3=CC[C@H]2C1(C)C |  | 5.7 | 10.2 |
| C[C@H](Cc1cc(C(=O)O)co1)[C@]1(C)CC[C@]2(C)C1=CC[C@@]13C[C@@]14CC[C@@H](O)C(C)(C)[C@@H]4CC[C@H]32 |  | 6.6 | 7.5 |
| C[C@H](Cc1cc(C(=O)O)co1)[C@H]1CC[C@@]2(C)C3=CC[C@H]4C(C)(C)[C@H](O)CC[C@]4(C)[C@@H]3CC[C@]12C |  | 8.8 | 8.9 |
| C[C@H](CC/C=C(\CO)C(=O)O)[C@H]1CC[C@@]2(C)[C@@H]3CC[C@H]4C(C)(C)[C@H](O)CC[C@@]45C[C@@]35CC[C@]12C |  | 11.4 | 8.4 |
| C/C(=C\CC[C@@H](C)[C@H]1CC[C@@]2(C)[C@@H]3CC[C@H]4C(C)(C)[C@H](O)CC[C@@]45C[C@@]35CC[C@]12C)C(=O)O [ISOMANGIFEROLIC ACID] |  | 7.6 | 10.5 |
